Settings: Liquid

COC [dimethyl ether]
Settings | vapor or sublimation pressure [kPa]
213.08 K | 16.46
218.11 K | 22.24
223.15 K | 29.61
228.06 K | 38.64
233.09 K | 49.96
238.11 K | 63.84
243.07 K | 80.36
248.12 K | 100.43
253.12 K | 124.09
258.13 K | 152.4
263.13 K | 184.96
268.13 K | 222.7
273.17 K | 266.5
278.17 K | 316.12
283.16 K | 372.9
288.13 K | 436.69
293.17 K | 509.01
298.08 K | 588.17
298.78 K | 600.51
303.15 K | 679.68
303.78 K | 691.56
308.13 K | 778.92
313.17 K | 889.98
318.16 K | 1011.5
323.17 K | 1144.7
328.16 K | 1290.2
333.17 K | 1449.2
338.17 K | 1621.5
343.16 K | 1809.1
348.16 K | 2012.4
353.16 K | 2232.3
358.16 K | 2468.9
363.16 K | 2723.3
368.14 K | 2996.4
373.14 K | 3291.2
378.15 K | 3608.6
383.15 K | 3948.6
388.16 K | 4313.9
393.16 K | 4706.2

Reference: the NIST ThermoML archive (doi:10.1021/je800375t)
